We go through three molecules from patent US12178801B1, “Stable psilocin salts, esters and conjugates and uses thereof” (LOBE SCIENCES LTD., priority 2022, dated 2024).

Series [1] is described as follows: Stability studies on psilocin mucate capsule (appearance, HPLC assay and impurities, TM-022-0392). The format is physicochemical. The conditions noted are these: for Assay TM-22-0392 (% Label Claim): specification 90.0-110.0%. How it is done:
Additional stability studies were performed on psilocin mucate (also known as psilocin mucic acid salt or conjugate or psilocin galactaric acid salt or conjugate) capsule.
Appearance was evaluated by viewing of the sample on a watchglass over a black and white background.
Assay conditions for Test/Method TM-022-0392 assessing stability and impurities were as follows: • Mobile phase: MPA: 945 mL water, 5 mL H3PO4 pH to 5.7 with NaOH; MPB: Acetonitrile • Diluent: 80:20 Water:MeOH • Standard: 0.4 mg/mL Psilocin Mucic RS in Diluent • Sample:0.4 mg/mL Psilocin Mucic AP in Diluent • HPLC Conditions are depicted in Table 3.
*Additional equilibration may be required System suit: RSD NMT 2.0% (5 injections), Tailing NMT 2.0, Plate count NLT 10000
Calculations were against a bracketing external standard.
Identity of psilocin mucate was verified by ultraviolet (UV) assessment, wherein the UV spectrum of the main peak in the standard matched the UV spectrum of the main peak in the sample and by retention time wherein the retention time ratio was 0.98-1.02.

The next series concerns healthy subjects. As to the kind of experiment: Phase one single-dose study of psilocin mucic acid conjugate capsules: MMSE and mood assessment by psychiatrist. The conditions noted are these: single oral capsule 4.05 mg, equivalent to 2 mg psilocin.
For series [2] the following is noted: psilocin from psilocybin administration; cited from earlier work.
The conditions of series [3]: psilocybin dose, equivalent to about 2 mg psilocin; cited from earlier work.

“And” between values parts separate entries of the source, which are not always exact repeats. Identical values can stand only once. “Also recorded” adds a separate entry of the source. Where only a bound is given, the exact number is not on record here.

As for `CN(C)CCc1c[nH]c2cccc(O)c12.O=C(O)[C@@H](O)[C@H](O)[C@H](O)[C@@H](O)C(=O)O` [psilocin mucate], the “Time for which demonstrated to be stable” value in series [1] is given as “at least 7 months”. Besides, in series [1] (capsule, 7 Months), the “Appearance, Packaging: Labeled, amber glass bottle with white closure containing 15 partially filled white opaque capsules” value was “Conforms”; the “Appearance, Product: White to light brown powder partially filling white opaque capsules” value is given as “Conforms”; the “Total Impurities TM-22-0392” value is under 0.05%; the “Assay TM-22-0392 (% Label Claim)” value came to 101.7%. For the same molecule, the “Impurities TM-22-0392, individual impurities” value in series [1] (capsule, 7 Months, all impurities) is “All <0.05%”. In addition, in series [1] (capsule, Initial), the “Appearance, Packaging: Labeled, amber glass bottle with white closure containing 15 partially filled white opaque capsules” value is on record as “Conforms”; the “Appearance, Product: White to light brown powder partially filling white opaque capsules” value is listed as “Conforms”; the “Total Impurities TM-22-0392” value amounted to 0.08%; the “Assay TM-22-0392 (% Label Claim)” value amounted to 100.8%. Further, the “FEELING STATUS” value in the series with healthy subjects (one statement per subject (01-10)) is recorded as “Less anxious, better mood, increase their appetite; also recorded: Feel little beet happier, better energy; also recorded: Feel calm, less thoughts, happier mood; also recorded: Euphoric, better mood, it helps with life stress; also recorded: Euphories, better mood, sleepy, feel time is slower; also recorded: Sleepy, better thoughts, less worried in general; also recorded: Did not feel change in mood but feeling cold; also recorded: More relaxed, want to drink sweet tea, better; also recorded: Better mood, feels hyper sexual; also recorded: Felt high mood, now they feel in good way, ,”. The MMSE in the series on healthy subjects (one value per subject (01-10), scores expected below 25 with a hallucinogenic substance) is 29 (2×) and 30 (3×) and 28 (3×) and 27 (2×).
Take `CN(C)CCc1c[nH]c2cccc(O)c12` [psilocin]: in series [2], the Estimated dose-normalized bioavailability is given as 52.7%.
On to `CN(C)CCc1c[nH]c2cccc(OP(=O)(O)O)c12` [psilocybin, Psilocybin], for which the “Lowest dose with reported hallucinogenic effects coupled with increased anxiety” value in series [3] is reported as 5 mg.
